Test results as given in US20030232101A1, “Topical formulations of resorcinols and cannibinoids and methods of use” (Immugen Pharmaceuticals, Inc., priority 2002, published 2003).
Entries after “also recorded” stand apart in the source; their conditions may differ.

Experiments:
Type in all cases: cell-based
HIV-1 strain RoJo = assay: PBMC time of addition assay (RT activity in supernatant at 6 days); conditions: for IC50: Human immunodeficiency virus 1, PBMC
Excerpt: Human peripheral blood mononuclear cells (PBMCs) from a minimum of 2 donors, that have been blasted with PHA and IL-2, were counted, viability determined by Trypan Blue dye exclusion and mixed in equal ratios. Pooled donors were used to minimize the variability observed between individual donors which results from quantitative and qualitative differences in HIV infection and overall response to the PHA and IL-2 of primary lymphocyte populations. The cells were resuspended at 1×10^6 cells /mL in RPMI 1640 without phenol red supplemented with 15% Fetal Bovine Serum (heat inactivated), 2 mM L-glutamine, 100 U/mL penicillin, 100 μg/mL streptomycin, 10 μg/mL gentamycin and IL-2 (20 U/mL, R&D Systems, Minneapolis, Minn.). Fifty microliters of cells were then distributed to the inner 60 wells of a 96 well round bottom microtiter culture plate in a standard format developed by the Infectious Disease Research department of Southern Research Institute. Each plate contains cell control wells (cells only), virus control wells (cells plus virus), and experimental wells (drug plus cells plus virus). Alternatively, cells were cultured in T25 cm^2 or T75 cm^2 tissue culture flasks at a starting density of 1×10^6 cells per ml. Serially diluted compounds were added to the microtiter plate or tissue culture flask followed by the appropriate pre-titered strain of HIV-1. For virus replication inhibition experiments the HIV-1 strain RoJo was used. This is a low passage presumable subtype B pediatric isolate with a syncytium inducing (SI) phenotype in MT-2 cells isolated by Southern Research Institute personnel. All samples were assayed in triplicate where possible with an accompanying determination of compound toxicity. The final volume per well in the microtiter plates was 200 μL. The final volume in the tissue culture flask varied depending upon experimental design and flask size. Assays were incubated for 6 days in a humidified atmosphere at 37° C., 5% CO^2, after which supernatants were collected, for analysis of RT activity and cell viability by MTS dye reduction. Culture were also examined microscopically, any abnormalities noted, and in the case of tissue culture flasks cell counts and viability determined by Trypan Blue Dye exclusion.
Time of addition assays were performed with PBMCs in two ways. For both assays, PBMCs were isolated and cultured under the conditions as described above. Time of addition assays were carried out in either a tissue culture flask format (T-75 cm^2) or in microtiter wells. In both cases due to the lack of plastic adherence and heterogeneity of the PBMC population for susceptibility to infection, it was not possible to use complete removal of virus following a timed adsorption to synchronize the infection and limit the assay to a single round of infection. Therefore, serial washing by partial removal of the media was used to reduce the concentration of virus and compound (if required) in the assay. Compound addition in relationship to antiviral activity was either assessed over a short addition interval immediately before or after virus addition or for up to 72 h post infection. For all assays virus replication was assessed at 6 days of culture by determining RT expression in cell-free supernatants. In the tissue culture flask format cells were counted and Trypan Blue Dye exclusion used to monitor compound cytotoxicity. Cell viability in the 96 well microtiter plate format was determined by MTS dye reduction. AZT was used as a positive control.
Reverse transcriptase activity was measured in cell-free supernatants. Tritiated thymidine triphosphate (NEN) (TTP) was resuspended in distilled H2O at 5 Ci/mL. Poly rA and oligo dT were prepared as a stock solution which was kept at −20° C. The RT reaction buffer was prepared fresh on a daily basis and consists of 125 μL 1.0 M EGTA, 125 μL dH2O, 110 μL 10% SDS, 50 μL 1.0 M Tris (pH 7.4), 50 μL 1.0 M DTT, and 40 μL 1.0 M MgCl2. […]

HIV-1 (96USHIPS7 strain) = assay: HIV attachment assay in PBMCs (cell-associated p24); conditions: for Comments: effect on HIV attachment / % Control / pg p24: 15 μM; for Comments: effect on HIV attachment: pretreatment 0, 2, 4, 24 h
Method: ELISA kits were purchased from Coulter Electronics. The assay was performed according to the manufacturer's instructions. Control curves were generated in each assay to accurately quantitate the amount of p24 antigen in each sample. For experiments using cell lysates. Fifty thousand (5×10^4) viable cells were lysed in Coulter ELISA buffer and subjected to 1 round of freeze/thawed to liberate trapped p24 and p24 detected per manufacturers instructions. HIV capsid protein (p24) was quantitated spectrophotometrically at 450 nm using a Molecular Devices Vmax plate reader using a standard curve. Final concentrations were calculated from the optical density values using the Molecular Devices Soft Max software package.
The attachment assay with PBMCs was performed as follows. Briefly, 1×10^6 PHA/IL-2 PBMCs were incubated for 0, 2, 4 and 24 hours with IMG compounds and cannabidiol in polypropylene tubes. A pre-titered amount of HIV-1 (96USHIPS7 strain, obtained from the AIDS Research and Reference Reagent Program ) was added in the presence of compound and incubated for 3 h at 37° C. After incubation the cultures were washed 3 times (400×g, 10 min, 4° C.) with media (1:25,000 dilution of input p24), the cell pellets lysed with p24 lysing buffer (Coulter) and p24 content determined by ELISA.
PBMCs pretreated with compounds for 0, 2, 4, and 24 were incubated with cell-free HIV-1 for 3 h and the excess unbound HIV removed. The assessed the amount of HIV bound to the cell was then assessed by measuring cell-associated p24 content of total cell lysates.

HIV-1 = assay: HeLa CD4 LTR β-gal HIV-1 attachment assay (Experimental Example 1); conditions: for IC50: Human immunodeficiency virus 1, HeLa; for inhibition of HIV attachment/entry: following a 24 h pre-incubation
[1] = addition prior to infection, pre-treatment 0 h
[2] = addition prior to infection, pre-treatment 2 h
[3] = addition prior to infection, pre-treatment 4 h
[4] = addition prior to infection, pre-treatment 24 h

Structure (SMILES) | IC50 (HIV-1 strain RoJo; 4 h, treatment −4 h pre) [µM] | IC50 (HIV-1 strain RoJo; 6 h, treatment 6 h post) [µM] | IC50 (HIV-1 strain RoJo; [1]) [µM] | IC50 (HIV-1 strain RoJo; [2]) [µM] | IC50 (HIV-1 strain RoJo; [3]) [µM] | IC50 (HIV-1 strain RoJo; [4]) [µM] | IC50 (HIV-1 strain RoJo; treatment at infection) [µM] | % Control (HIV-1 (96USHIPS7 strain); time 0 h) [%] | pg p24 (HIV-1 (96USHIPS7 strain); time 0 h) [pg] | % Control (HIV-1 (96USHIPS7 strain); time 2 h) [%] | pg p24 (HIV-1 (96USHIPS7 strain); time 2 h) [pg] | % Control (HIV-1 (96USHIPS7 strain); time 4 h) [%] | pg p24 (HIV-1 (96USHIPS7 strain); time 4 h) [pg] | % Control (HIV-1 (96USHIPS7 strain); time 24 h) [%] | pg p24 (HIV-1 (96USHIPS7 strain); time 24 h) [pg] | IC50 (HIV-1; Experiment 1, pretreat 0 h) [µM] | IC50 (HIV-1; Experiment 1, pretreat 4 h) [µM] | IC50 (HIV-1; Experiment 1, pretreat 24 h) [µM] | IC50 (HIV-1; Experiment 2, pretreat 0 h) [µM] | IC50 (HIV-1; Experiment 2, pretreat 4 h) [µM] | further results
CC(C)=CCCC1(C)CCc2c(O)cc(C(C)(C)CCCC(C)C)cc2O1 (centres unmarked) [IMG508, 3,4-Dihydro-2-methyl-2-(4-methyl-3-pentenyl)-7-(1,1,5-trimethylhexyl)-2H-1-benzopyran-5-ol] | 6.2 | 22.5 | 14.2 | 10.4 | 4.1 | 11.9 | 15.7 | 81.3 | 312 | 85.4 | 328 | 72.7 | 279 | 111.5 | 428 | 16 | 10.8 | 7.4 | 0.9 | 11 | fold decrease in IC50 (HIV-1 strain RoJo; 4 h pretreatment): 4-fold decrease in IC50; Comments: effect on HIV attachment (HIV-1 (96USHIPS7 strain)): No significant effect; virus binding relative to control (HIV-1 (96USHIPS7 strain); pretreated for 24 h): return to control levels of virus binding; IC50 (HIV-1; Experiment 2, pretreat 24 h): 2.6 µM; β-galactosidase production relative to background (cells alone+compounds) (HIV-1; at all times): suppressed β-galactosidase production below background; inhibition of HIV attachment/entry (HIV-1): consistent inhibition; Comment: suppression of β-galactosidase activity (HIV-1; pretreat 0 h): Suppression of β-galactosidase activity,; Comment: transient suppression lost at lower concentrations (HIV-1; pretreat 0 h): Transient suppression lost with at lower; Comment: suppression of β-galactosidase activity (HIV-1; pretreat 4 h): Suppression of β-galactosidase activity; Comment: suppression of β-galactosidase activity (HIV-1; pretreat 24 h): Suppression of β-galactosidase activity,; Comment: transient suppression lost at lower concentrations (HIV-1; pretreat 24 h): Transient suppression lost with at lower
CC1=CCC2C(C1)c1c(O)cc(C(C)(C)CCCC(C)C)cc1OC2(C)C (centres unmarked) [IMG509, 3-Norpentyl-3-(1,1,5-trimethylhexyl)-Δ8-tetrahydrocannabinol] | 19.6 | 10 | 9.3 | 11 | 12.6 | 6.6 | 17.5 | 83.6 | 321 | 81.8 | 314 | 61.2 | 235 | 77.3 | 297 | > 50 | 21 | 11.5 | 28 | 36 | fold decrease in IC50 (HIV-1 strain RoJo; 24 h pretreatment): approximately 2 fold; inhibition of HIV cell-association (HIV-1 (96USHIPS7 strain); 4 h preincubation): significantly inhibit HIV cell-association; IC50 (HIV-1; Experiment 2, pretreat 24 h): 3.5 µM; β-galactosidase production relative to background (cells alone+compounds) (HIV-1; following 24 h exposure): suppressed β-galactosidase production below background; inhibition of HIV attachment/entry (HIV-1): not; Comment: transient suppression lost at lower concentrations (HIV-1; pretreat 0 h): transient suppression of virus replication; also recorded: Transient suppression lost with at lower; Comment: suppression of β-galactosidase activity (HIV-1; pretreat 24 h): Suppression of β-galactosidase activity
Cc1c(O)cc(C(C)(C)CCCC(C)C)cc1O [IMG510, 2-Methyl-5-(1,1,5-trimethylhexyl)resorcinol] | 17.7 | 14.4 | 13.4 | 1.4 | 11.5 | 9.5 | 16.1 | 91.1 | 350 | 85.7 | 329 | 71.4 | 274 | 88.3 | 339 | > 50 | > 50 | 0.14 | > 50 | > 50 | fold decrease in IC50 (HIV-1 strain RoJo; 2 h pretreatment): 9.5-fold decrease in; IC50 (HIV-1; Experiment 2, pretreat 24 h): 11.5 µM; β-galactosidase production relative to background (cells alone+compounds) (HIV-1; following 24 h exposure): suppressed β-galactosidase production below background; inhibition of HIV attachment/entry (HIV-1): consistent inhibition; Comment: transient suppression lost at lower concentrations (HIV-1; pretreat 4 h): transient suppression of virus replication; also recorded: Transient suppression lost with at lower; Comment: suppression of β-galactosidase activity (HIV-1; pretreat 24 h): Suppression of β-galactosidase activity
Cc1ccc2c(c1)-c1c(O)cc(C(C)(C)CCCC(C)C)cc1OC2(C)C [IMG511, 3-Norpentyl-3-(1,1,5-trimethylhexyl)cannabinol] | 15.2 | 9.3 | 6.6 | 9.4 | 11.7 | 33.2 | 16.9 | 75.5 | 290 | 85.4 | 328 | 76.6 | 294 | 91.7 | 352 | 25 | 9.5 | 2.5 | < 0.16 | 8.3 | fold increase in IC50 (HIV-1 strain RoJo; 24 h pretreatment): 5-fold increase in IC50; Comments: effect on HIV attachment (HIV-1 (96USHIPS7 strain)): No Significant effect; IC50 (HIV-1; Experiment 2, pretreat 24 h): 7.1 µM; β-galactosidase production relative to background (cells alone+compounds) (HIV-1; at all times): suppressed β-galactosidase production below background; inhibition of HIV attachment/entry (HIV-1): consistent inhibition; Comment: suppression of β-galactosidase activity (HIV-1; pretreat 0 h): Suppression of β-galactosidase activity; Comment: suppression of β-galactosidase activity (HIV-1; pretreat 4 h): Suppression of β-galactosidase activity,; Comment: transient suppression lost at lower concentrations (HIV-1; pretreat 4 h): Transient suppression lost with at lower; Comment: suppression of β-galactosidase activity (HIV-1; pretreat 24 h): Suppression of β-galactosidase activity
